Test system: KRAS-mutant PDC complex spheroid viability
Test: Anticancer human tumor 186277-243-T-J2-PDC patient-derived colon adenocarcinoma cell line growth inhibition [KRAS2]
Conditions: for IC50: curve of first compound; for viability, T/C: stronger effect = lower value
In short: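 KRAS-mutant tumor cells were grown as spheroids with HUVEC endothelial cells and human MSCs as stroma. Targeted agents were tested alone and with KRAS pathway inhibitors. Doses started at or near clinical Cmax, or 10 microM, descending half-log.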

[1] = second compound 0.1 µM, first compound 0.0316 µM
[2] = second compound 0.1 µM, first compound 0.1 µM
[3] = second compound 0.1 µM, first compound 0.316 µM
[4] = second compound 0.1 µM, first compound 1 µM
[5] = second compound 0.1 µM, first compound 3.16 µM
[6] = second compound 0.1 µM, first compound 10 µM
[7] = second compound 0.316 µM, first compound 0.0316 µM
[8] = second compound 0.316 µM, first compound 0.1 µM
[9] = second compound 0.316 µM, first compound 0.316 µM
[10] = second compound 0.316 µM, first compound 1 µM
[11] = second compound 0.316 µM, first compound 3.16 µM
[12] = second compound 0.316 µM, first compound 10 µM
[13] = second compound 1 µM, first compound 0.0316 µM
[14] = second compound 1 µM, first compound 0.1 µM
[15] = second compound 1 µM, first compound 0.316 µM
[16] = second compound 1 µM, first compound 1 µM
[17] = second compound 1 µM, first compound 3.16 µM
[18] = second compound 1 µM, first compound 10 µM
[19] = second compound 3.16 µM, first compound 0.0316 µM
[20] = second compound 3.16 µM, first compound 0.1 µM
[21] = second compound 3.16 µM, first compound 0.316 µM
[22] = second compound 3.16 µM, first compound 1 µM
[23] = second compound 3.16 µM, first compound 3.16 µM
[24] = second compound 3.16 µM, first compound 10 µM
[25] = second compound 10 µM, first compound 0.0316 µM
[26] = second compound 10 µM, first compound 0.1 µM
[27] = second compound 10 µM, first compound 0.316 µM
[28] = second compound 10 µM, first compound 1 µM
[29] = second compound 10 µM, first compound 3.16 µM
[30] = second compound 10 µM, first compound 10 µM
[31] = second compound 0.1 µM, first compound 0.00316 µM
[32] = second compound 0.1 µM, first compound 0.01 µM
[33] = second compound 0.316 µM, first compound 0.00316 µM
[34] = second compound 0.316 µM, first compound 0.01 µM
[35] = second compound 1 µM, first compound 0.00316 µM
[36] = second compound 1 µM, first compound 0.01 µM
[37] = second compound 3.16 µM, first compound 0.00316 µM
[38] = second compound 3.16 µM, first compound 0.01 µM
[39] = second compound 10 µM, first compound 0.00316 µM
[40] = second compound 10 µM, first compound 0.01 µM
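Wherever viability, T/C is given: viability read after seven days of compound exposure; 100% = DMSO vehicle-treated spheroids so lower means less viable.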

SMILES	IC50 (second compound 0.1 µM)	IC50 (second compound 0.316 µM)	IC50 (second compound 1 µM)	IC50 (second compound 3.16 µM)	IC50 (second compound 10 µM)	viability, T/C [1]	viability, T/C [2]	viability, T/C [3]	viability, T/C [4]	viability, T/C [7]	viability, T/C [8]	viability, T/C [9]	viability, T/C [10]	viability, T/C [13]	viability, T/C [14]	viability, T/C [15]	viability, T/C [19]	viability, T/C [20]	viability, T/C [25]	viability, T/C [26]	also measured
CC(C)NCC(C(=O)N1CCN(c2ncnc3c2C(C)CC3O)CC1)c1ccc(Cl)cc1 (stereo not given) + CC1OCC2(CCN(c3cnc(Sc4ccnc(N)c4Cl)c(N)n3)CC2)C1N	0.498 µM	0.389 µM	0.268 µM	0.134 µM	0.0572 µM	110%	98.2%	55.2%	34.9%	134%	96.9%	54.3%	26.5%	115%	94%	41.5%	86.5%	58.3%	65.1%	35.8%	viability, T/C [5]: 25.7%; viability, T/C [6]: 9.35%; viability, T/C [11]: 17.3%; viability, T/C [12]: 7.17%; viability, T/C [16]: 16%; viability, T/C [17]: 10.7%; viability, T/C [18]: 4.01%; viability, T/C [21]: 25.6%; viability, T/C [22]: 8.57%; viability, T/C [23]: 3.93%; viability, T/C [24]: 2.37%; viability, T/C [27]: 9.46%; viability, T/C [28]: 3.07%; viability, T/C [29]: 1.79%; viability, T/C [30]: 1.34%
CCN1CCN(Cc2ccc(Nc3ncc(F)c(-c4cc(F)c5nc(C)n(C(C)C)c5c4)n3)nc2)CC1 + CC1OCC2(CCN(c3cnc(Sc4ccnc(N)c4Cl)c(N)n3)CC2)C1N	> 1 µM	0.839 µM	0.574 µM	0.326 µM	0.102 µM	113%	148%	161%	60.8%	138%	155%	125%	36.8%	138%	125%	82.3%	97%	85.1%	67%	56.8%	viability, T/C [31]: 96.9%; viability, T/C [32]: 88.9%; viability, T/C [33]: 95.2%; viability, T/C [34]: 98.7%; viability, T/C [35]: 88.8%; viability, T/C [36]: 118%; viability, T/C [16]: 19.9%; viability, T/C [37]: 113%; viability, T/C [38]: 130%; viability, T/C [21]: 52.2%; viability, T/C [22]: 8.29%; viability, T/C [39]: 123%; viability, T/C [40]: 92.3%; viability, T/C [27]: 28.7%; viability, T/C [28]: 3.85%
CCNC(=O)CC1N=C(c2ccc(Cl)cc2)c2cc(OC)ccc2-n2c(C)nnc21 (stereo not given) + CC1OCC2(CCN(c3cnc(Sc4ccnc(N)c4Cl)c(N)n3)CC2)C1N	5.83 µM	1.05 µM	0.338 µM	0.155 µM	0.051 µM	92.5%	104%	144%	92.7%	108%	121%	103%	50.6%	97.6%	128%	52.2%	109%	67.8%	64.2%	30%	viability, T/C [5]: 66%; viability, T/C [6]: 37%; viability, T/C [11]: 26.5%; viability, T/C [12]: 16.8%; viability, T/C [16]: 16.2%; viability, T/C [17]: 14%; viability, T/C [18]: 8.15%; viability, T/C [21]: 20.9%; viability, T/C [22]: 7.45%; viability, T/C [23]: 4.82%; viability, T/C [24]: 4.45%; viability, T/C [27]: 9.5%; viability, T/C [28]: 4.12%; viability, T/C [29]: 3.89%; viability, T/C [30]: 2.6%
Cn1ncnc1[C@H]1c2n[nH]c(=O)c3cc(F)cc(c23)N[C@@H]1c1ccc(F)cc1 + CC1OCC2(CCN(c3cnc(Sc4ccnc(N)c4Cl)c(N)n3)CC2)C1N	> 0.1 µM	> 0.1 µM	0.0892 µM	0.0187 µM	0.00416 µM	84.2%	62.3%	–	–	76.8%	58.1%	–	–	62.4%	50.6%	–	41.5%	36%	31.5%	25.4%	viability, T/C (second compound 0.1 µM, first compound 0.000316 µM): 107%; viability, T/C (second compound 0.1 µM, first compound 0.001 µM): 116%; viability, T/C [31]: 110%; viability, T/C [32]: 90.5%; viability, T/C (second compound 0.316 µM, first compound 0.000316 µM): 126%; viability, T/C (second compound 0.316 µM, first compound 0.001 µM): 120%; viability, T/C [33]: 104%; viability, T/C [34]: 84.3%; viability, T/C (second compound 1 µM, first compound 0.000316 µM): 119%; viability, T/C (second compound 1 µM, first compound 0.001 µM): 103%; viability, T/C [35]: 89.4%; viability, T/C [36]: 71.4%; viability, T/C (second compound 3.16 µM, first compound 0.000316 µM): 81.9%; viability, T/C (second compound 3.16 µM, first compound 0.001 µM): 85.6%; viability, T/C [37]: 76.3%; viability, T/C [38]: 60.2%; viability, T/C (second compound 10 µM, first compound 0.000316 µM): 66.7%; viability, T/C (second compound 10 µM, first compound 0.001 µM): 68.4%; viability, T/C [39]: 49.4%; viability, T/C [40]: 41.3%

— PubChem BioAssay AID1963875 (Molecular Pharmacology Branch, DTP, NCI, 2024)
